In US11999683B2, “Lipocationic dendrimers and uses thereof” (priority 2015, dated 2024):

Assays:
[1] = system: Factor VII; assay: In vivo Factor VII silencing in mice; details: 1 mg siFVII/kg
Description: For in vivo delivery screening, female C57BL/6 mice received tail vein i.v. injections of PBS (negative control, n=3) or dendrimer NPs containing non-targeting siRNA (siCTR, negative control, n=3) or dendrimer NPs containing anti-Factor VII siRNA (siFVII, n=3) diluted in PBS (200 μL or less in total volume). After 48 h, body-weight gain/loss was measured and mice were anaesthetized by isofluorane inhalation for blood sample collection by retro-orbital eye bleed. Serum was isolated with serum separation tubes (Becton Dickinson) and Factor VII protein levels were analyzed by a chromogenic assay (Biophen FVII, Aniara Corporation). A standard curve was constructed using samples from PBS-injected mice and relative Factor VII expression was determined by comparing treated groups to an untreated PBS control.
Having identified dendrimers that can overcome intracellular barriers, next, the dendrimers that can overcome extracellular barriers to efficiently deliver siRNA in vivo were identified. […] Dendrimers were evaluated for their ability to silence Factor VII in hepatocytes because this blood clotting factor can be readily quantified from a small serum sample (Akinc et al., 2008; Semple et al., 2010). […] FVII activity was quantified 3 days post injection.

[2] = In vivo toxicity evaluation (body weight) in wild type mice; details: i.v., 4 mg siCTR/kg (100 mg dendrimer/kg or 28 mg C12-200/kg)
Description: (§1) Wild-type mice or transgenic mice bearing liver tumors were randomly divided into different groups. Mice received tail vein i.v. injections of dendrimer NPs containing siCTR. Their body weight was monitored daily. For transgenic mice bearing liver tumors, multiple tail vain injections were performed to simulate repeated dosing.
To identify degradable dendrimers with the required balance of low toxicity and high potency required for liver cancer treatment, the degradable dendrimers were chose to evaluate their in vivo toxicity. In parallel, we analyzed C12-200 lipidoid LNPs wee chose as the best example of a non-hydrolyzable system previously shown to be potent in mice and non-human primates (Love et al., 2010). Lipidoids, as a class, are benchmark materials at the forefront of clinical research (Kanasty et al., 2013; Love et al., 2010; Sahay et al., 2013). Non-immunogenic control siRNA was used to best evaluate the toxicity of the individual dendrimers themselves. Dendrimer NPs were formulated at a weight ratio of 25:1 (dendrimer:siCTR), higher than necessary to better probe toxicity. C12-200 LNPs were prepared using identical formulation parameters as previously reported (Love et al., 2010). Size and zeta potential of each NP in PBS buffer was characterized. […] Each formulated NP was injected i.v. into wild type mice at a 4 mg siCTR/kg dose (100 mg dendrimer/kg or 28 mg C12-200/kg). […]

[3] = In vivo toxicity evaluation in transgenic mice bearing MYC-driven liver tumors; details: for survival after multiple injections of siCTR NPs: tumor-bearing mice, injected days 32, 36, 40, 44 at 3 mg siCTR/kg (75 mg dendrimer/kg)
Description: All experiments were approved by the Institutional Animal Care and Use Committees of The University of Texas Southwestern Medical Center and were consistent with local, state and federal regulations as applicable. Female C57BL/6 mice were purchased from Harlan Laboratories (Indianapolis, IN). Transgenic mice bearing MYC-driven liver tumors were generated by crossing the TRE-MYC strain with LAP-tTA strain. Mice bearing the LAP-tTA and TRE-MYC genotype were maintained on 1 mg/mL of dox, and MYC was induced by withdrawing dox. Power analysis was performed to anticipate required number of animals to achieve statistical significance.
as §1
A well-established Tet-On MYC inducible transgenic liver cancer model ws chosen (FIG. 13A) (Nguyen et al., 2014). […] At the age of 32 days (p32), these sick transgenic mice bearing aggressive liver tumors were injected with 5A2-SC8 or 6A3-SC12 NPs at 3 mg siCTR/kg dosage (75 mg dendrimer/kg or 21 mg C12-200/kg). […] In contrast to the result in WT mice, injection of C12-200 LNPs to mice bearing aggressive tumors lost >20% weight after one day, despite receiving ˜3 times less lipid than 5A2-SC8 injected mice (FIG. 12D). […] In addition to being less toxic than benchmark compounds, 5A2-SC8 NPs are more efficacious because these dendrimers reduce clinical concern for dose limiting toxicity and enable a wider therapeutic window.

[4] = Biodistribution of Cy5.5-labeled siRNA in liver tumor-bearing mice; format: in vivo; details: Cy5.5-labeled siRNA 1 mg/kg i.v., 24 hours post-injection
Description: Female C57BL/6 mice or transgenic mice bearing liver tumors received tail vein i.v. injections with dendrimer NPs containing Cy5.5-siRNA at 1 mg/kg of siRNA in 200 μL. At 24 h post injection, mice were euthanized and organs were removed. The biodistribution was assessed by imaging whole organs with an IVIS Lumina System (Caliper Life Sciences) with the Cy5.5 filter setting.
For confocal imaging, the tissue was cryo-sectioned ([…]) and fixed using 4% paraformaldehyde at room temperature for 10 min. The slides were washed three times with PBS and blocked for 30 min in PBS with 1% albumin. Sections were then incubated for 30 min with Alexa Fluor 488 Phalloidin (1:200 dilution, Life Technologies) in PBS with 1% albumin. Slides were washed three times with 0.1% Tween 20 and mounted using ProLong Gold Antifade (Life Technologies). Sections were imaged using an LSM 700 point scanning confocal microscope (Zeiss) equipped with a 25× objective.
Since 5A2-SC8 balances low in vivo toxicity and effectiveness for silencing the hepatocellular target FVII, first, whether 5A2-SC8 NPs could deliver siRNA into tumor cells was examined. At the age of 41 days (p41), the livers of these transgenic mice are full of tumors (FIG. 14A). On p40, mice were injected intravenously with 5A2-SC8 NPs with Cy5.5-labeled siRNA at a dosage of 1 mg siRNA/kg. […]

[5] = tumor-bearing mice p32, 3 mg siCTR/kg (75 mg dendrimer/kg)

## CCCCCCCCSCC(C)C(=O)OCCOC(=O)CCN(CCNCCN(CCC(=O)OCCOC(=O)C(C)CSCCCCCCCC)CCC(=O)OCCOC(=O)C(C)CSCCCCCCCC)CCNCCN(CCC(=O)OCCOC(=O)C(C)CSCCCCCCCC)CCC(=O)OCCOC(=O)C(C)CSCCCCCCCC (centres unmarked) [5A2-SC8]
[1]
  in vivo FVII knockdown: > 95%
[2]
  body weight change: quicker recovery and gained weight normally after the first day
[3]; LAP-tTA/TRE-MYC transgenic, mouse, in vivo
  tolerance in tumor-bearing mice: up to 75 mg/kg
[3]; tumor-bearing mice p32, 3 mg siCTR/kg (75 mg dendrimer/kg or 21 mg C12-200/kg), after one day
  body weight loss: about 5%
[3]; [5]
  body weight recovery: quickly returned to their starting weight on the second day
[3]
  survival after multiple injections of siCTR NPs: well tolerated and not affect survival
[4]
  siRNA accumulation in organs (fluorescence imaging): siRNA accumulation in the cancerous liver, with only minor accumulation in the spleen and kidneys

## CCCCCCCCCCCCSCC(C)C(=O)OCCOC(=O)CCN(CCC(=O)OCCOC(=O)C(C)CSCCCCCCCCCCCC)CCN(CCN(CCC(=O)OCCOC(=O)C(C)CSCCCCCCCCCCCC)CCC(=O)OCCOC(=O)C(C)CSCCCCCCCCCCCC)CCN(CCC(=O)OCCOC(=O)C(C)CSCCCCCCCCCCCC)CCC(=O)OCCOC(=O)C(C)CSCCCCCCCCCCCC (centres unmarked) [6A3-SC12]
[2]
  body weight change: quicker recovery and gained weight normally after the first day
[3]; [5]
  body weight recovery: could not recover
[3]; tumor-bearing mice p32, 3 mg siCTR/kg (75 mg dendrimer/kg), by the third day
  body weight loss: 10%
[3]
  survival after multiple injections of siCTR NPs: died seven days earlier compared to mice that received no treatment
